In PubChem BioAssay AID1435 (PCMD, 2008):
The source made the active and inactive calls. No rule for the calls is given here.

target: DNA repair protein RAD51 homolog 1 (Homo sapiens) (UniProt Q06609); experiment: RAD51 recombination inhibitor potency, dose response, biochemical, homologous recombination, fluorescence (AID 1435); conditions: RAD51 homologous recombination biochemical assay
Sequence (Q06609 whole entry, looked up): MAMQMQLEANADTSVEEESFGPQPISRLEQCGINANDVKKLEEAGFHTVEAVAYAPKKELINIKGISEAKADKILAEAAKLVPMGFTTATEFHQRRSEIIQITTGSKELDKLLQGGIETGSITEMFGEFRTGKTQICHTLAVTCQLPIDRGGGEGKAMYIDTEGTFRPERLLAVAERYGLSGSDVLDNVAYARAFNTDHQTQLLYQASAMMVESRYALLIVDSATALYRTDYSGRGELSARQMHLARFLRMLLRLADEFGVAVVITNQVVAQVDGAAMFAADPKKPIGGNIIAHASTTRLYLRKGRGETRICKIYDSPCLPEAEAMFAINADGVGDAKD

| SMILES | IC50 |
| --- | --- |
| CCCCCOCC1CC(C/C(C)=N/Nc2nc(-c3ccccc3)cs2)C(=O)O1 (stereo not drawn) | > 85 µM (inactive) |
| COC(=O)/C(=C\Nc1cccc(Cl)c1C)c1ncc(C(F)(F)F)cc1Cl | > 85 µM (inactive) |
| COc1cccc2c1C(=O)c1c(O)c3c(c(O)c1C2=O)C[C@@](O)(C(=O)CO)C[C@@H]3O[C@H]1C[C@H](N)[C@@H](O)[C@H](C)O1 | 1.4 µM |
